Test results reported in ChEMBL document CHEMBL1201862, “PubChem BioAssay data set” (2004).
The source made the active and inactive calls.

Legend:
Vero = experiment: cells; type: functional; conditions: Chlorocebus sabaeus
[1] = target: T1, Calpain-2 catalytic subunit (Sus scrofa, UniProt P43367); experiment: pig calpain II inhibitor potency, dose response, biochemical, fluorogenic peptide substrate (AID 1420); type: functional
T1 sequence (P43367 whole entry): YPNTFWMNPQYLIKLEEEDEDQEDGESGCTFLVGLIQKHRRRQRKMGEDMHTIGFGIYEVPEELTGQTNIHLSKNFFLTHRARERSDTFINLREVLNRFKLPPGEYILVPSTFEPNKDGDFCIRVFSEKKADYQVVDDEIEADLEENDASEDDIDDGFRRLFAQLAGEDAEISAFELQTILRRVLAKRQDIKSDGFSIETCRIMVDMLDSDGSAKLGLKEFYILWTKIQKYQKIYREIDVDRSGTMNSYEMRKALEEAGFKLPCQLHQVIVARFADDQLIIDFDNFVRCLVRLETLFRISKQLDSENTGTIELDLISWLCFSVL

BJ [2] = experiment: cells; type: functional, cell-based; conditions: Homo sapiens
[3] = cytotoxicity toward DRD oncogenic fibroblasts, dose response, cell-based, non-viral oncogenic, luminescence (AID 1934); type: functional; conditions: Homo sapiens
BJ [4] = experiment: cytotoxicity toward BJ-TERT fibroblasts, dose response, cell-based, RAS-independent, luminescence (AID 1933); type: functional; conditions: Homo sapiens
BJ [5] = experiment: cytotoxicity toward BJ-TERT-LT-ST fibroblasts, dose response, cell-based, RAS-independent, luminescence (AID 1935); type: functional; conditions: Homo sapiens;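 also: BJ fibroblasts immortalized with TERT plus LT and ST oncogenes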
[6] = target: T2, Replicative DNA helicase DnaB (Mycobacterium tuberculosis, UniProt P9WMR3); experiment: DnaB intein splicing inhibitors, dose response, biochemical, cell-free fluorescence (AID 449749); type: functional
T2 sequence (P9WMR3 whole entry): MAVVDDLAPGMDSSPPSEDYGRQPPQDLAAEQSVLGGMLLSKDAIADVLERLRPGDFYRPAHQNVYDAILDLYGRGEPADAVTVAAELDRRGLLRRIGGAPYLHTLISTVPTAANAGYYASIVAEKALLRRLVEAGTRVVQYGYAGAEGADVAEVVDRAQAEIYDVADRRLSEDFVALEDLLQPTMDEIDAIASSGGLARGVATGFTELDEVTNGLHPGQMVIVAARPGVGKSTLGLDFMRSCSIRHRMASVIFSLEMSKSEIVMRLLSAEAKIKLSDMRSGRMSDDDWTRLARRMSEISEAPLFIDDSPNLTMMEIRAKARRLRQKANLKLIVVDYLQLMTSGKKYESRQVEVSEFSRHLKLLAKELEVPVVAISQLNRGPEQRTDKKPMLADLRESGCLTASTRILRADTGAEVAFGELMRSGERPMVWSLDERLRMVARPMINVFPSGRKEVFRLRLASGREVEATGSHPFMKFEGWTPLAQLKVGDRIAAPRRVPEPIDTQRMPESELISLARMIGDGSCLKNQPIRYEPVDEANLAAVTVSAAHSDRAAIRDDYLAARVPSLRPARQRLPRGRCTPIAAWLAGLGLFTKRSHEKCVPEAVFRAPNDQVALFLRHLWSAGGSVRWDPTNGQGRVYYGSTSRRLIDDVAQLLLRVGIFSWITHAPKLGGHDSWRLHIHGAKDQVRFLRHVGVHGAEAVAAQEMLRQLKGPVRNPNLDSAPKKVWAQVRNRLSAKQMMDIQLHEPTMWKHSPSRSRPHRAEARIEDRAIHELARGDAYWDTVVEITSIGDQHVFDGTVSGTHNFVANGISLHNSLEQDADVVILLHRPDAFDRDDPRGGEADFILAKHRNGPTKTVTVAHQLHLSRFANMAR

Protein RecA = target: T3, Protein RecA (Mycobacterium tuberculosis, UniProt P9WHJ3); experiment: Fluorescence Cell-Free Homogeneous Dose Retest to Identify Inhibitors of RecA-Intein Splicing Activity. [Related pubchem assays (depositor defined):AID2097, AID2223, AID489010, AID492950]; type: functional
T3 sequence (P9WHJ3 whole entry): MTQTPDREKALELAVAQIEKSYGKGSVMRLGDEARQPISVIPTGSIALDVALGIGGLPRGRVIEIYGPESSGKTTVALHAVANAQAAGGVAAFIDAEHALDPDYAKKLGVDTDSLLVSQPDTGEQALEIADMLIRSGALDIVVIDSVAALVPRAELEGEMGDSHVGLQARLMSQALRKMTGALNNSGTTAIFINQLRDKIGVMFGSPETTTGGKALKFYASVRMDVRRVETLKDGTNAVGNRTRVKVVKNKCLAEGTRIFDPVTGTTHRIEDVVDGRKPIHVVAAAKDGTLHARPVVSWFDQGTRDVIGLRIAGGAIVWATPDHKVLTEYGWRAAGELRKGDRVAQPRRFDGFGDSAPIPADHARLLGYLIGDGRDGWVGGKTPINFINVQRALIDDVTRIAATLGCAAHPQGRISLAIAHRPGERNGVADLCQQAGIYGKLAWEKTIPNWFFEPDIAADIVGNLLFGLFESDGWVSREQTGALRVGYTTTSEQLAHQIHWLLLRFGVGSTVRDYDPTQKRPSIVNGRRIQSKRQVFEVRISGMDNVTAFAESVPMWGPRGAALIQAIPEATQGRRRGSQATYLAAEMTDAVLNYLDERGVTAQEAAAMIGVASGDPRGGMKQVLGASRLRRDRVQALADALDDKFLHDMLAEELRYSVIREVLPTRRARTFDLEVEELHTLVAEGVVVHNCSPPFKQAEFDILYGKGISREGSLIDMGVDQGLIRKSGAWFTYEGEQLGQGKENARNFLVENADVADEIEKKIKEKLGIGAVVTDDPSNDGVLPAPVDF

[7] = inhibitors of HIV Env-driven cell fusion, dose response, cherry-pick (AID 652057); type: functional, cell-based
[8] = inhibitors of clade B AD8 Env fusion, dose response, cell-based, cherry-pick (AID 652062); type: functional;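 also: luciferase signal from cell-cell fusion driven by HIV-1 clade B AD8 Env; potency is for inhibitors of fusion seen as a drop in luminescence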
[9] = Luminescence Cell-Based Dose Confirmation HTS to Identify Activators of 5'UTR Stem-Loop Driven Alpha-Synuclein mRNA Translation in H4 Neuroglioblastoma Cells. [Related pubchem assays: 1829 (Project Summary), 1814 (Primary HTS)]; type: functional
H4 = experiment: Luminescence Cell-Based Dose Response HTS to Identify Activators of 5'UTR Stem-Loop Driven Prion Protein mRNA Translation in H4 Neuroglioblastoma Cells. [Related pubchem assays: 1829 (Project Summary), 1814 (Primary HTS)]; type: functional; conditions: Homo sapiens
[10] = Luminescence Cell-Based Dose Response HTS to Identify Activators of Luciferase Translation or Activity in H4 […] Cells. [Related pubchem assays: 1829 (Project Summary), 1814 (Primary HTS)]; type: functional
[11] = target: FAD-linked sulfhydryl oxidase ALR (Homo sapiens, UniProt P55789); experiment: inhibitors of human ALR sulfhydryl oxidase, dose response, biochemical, H2O2 detection, luminescence, cherry-pick (AID 493248)
Sequence of FAD-linked sulfhydryl oxidase ALR (P55789 whole entry): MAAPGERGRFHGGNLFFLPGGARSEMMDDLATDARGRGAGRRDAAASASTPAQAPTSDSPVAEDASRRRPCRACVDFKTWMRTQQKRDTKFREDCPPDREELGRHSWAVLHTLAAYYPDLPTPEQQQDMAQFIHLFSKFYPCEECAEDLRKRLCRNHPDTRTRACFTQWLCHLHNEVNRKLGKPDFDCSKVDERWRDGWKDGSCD

[12] = NIH-3T3 fibroblast cytotoxicity, dose response, cytotoxicity control, cell-based, fluorescence, Alamar Blue, secondary assay (AID 2327); type: functional;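 also: NIH-3T3 mouse fibroblasts cultured with fluconazole at 8 µg/mL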
Streptococcus = experiment: Group A Streptococcus viability loss, dose response, counter-screen for streptokinase expression inhibitor project, luminescence, BacTiterGlo (AID 1915); type: functional, organism-based;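 also: potency for reduction of bacterial viability or growth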
[13] = system: Streptococcus sp. 'group A'; experiment: growth inhibition of control SK(-) GAS strain, dose response, counter-screen for streptokinase expression inhibitor project, luminescence, kanamycin, BacTiterGlo, confirmation (AID 1900); type: functional, organism-based
P388 = experiment: cells; type: functional; conditions: Mus musculus
SN12K1 = experiment: cells; type: functional; conditions: Homo sapiens
P388/ADR = experiment: cells; type: functional; conditions: Mus musculus
INS1 = experiment: beta cell apoptosis inhibitors, cytokine rescue, dose response, luminescence, retest (AID 449756); type: functional, cell-based; conditions: Rattus norvegicus;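 also: cell death triggered by IL-1 beta plus TNF-alpha plus IFN-gamma mixture; protective hits raise ATP signal compared with cytokine alone wells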

## COc1cccc(/C=C2\SC(=S)N(CCC(=O)N3CCCCC3CCO)C2=O)c1 (centres undefined)
Vero
  CC50: 15.9 µM (active)

## CSc1ncccc1C(=O)OCC(=O)Nc1ccc2c(c1)OCO2
[1]
  IC50: < 0.4 µM (not active)

## CCOc1ccc(OCc2ccc(C(=O)N3CCCC(C)C3)cc2)cc1 (centres undefined)
[1]
  IC50: 10.5 µM (active)

## O=Cc1[nH]c2ccccc2c1N(C(=O)CCl)c1ccc([N+](=O)[O-])cc1
BJ [2]
  EC50: 7.89 µM (active)
[3]
  EC50: 5.75 µM (inconclusive)
BJ [4]
  EC50: 5.65 µM (inconclusive)
BJ [5]
  EC50: 4.03 µM (active)

## CCn1c(COc2ccc(Cl)cc2)nnc1SC1CCc2ccccc2C1=O (centres undefined)
[1]
  IC50: 7.24 µM (not active)
[6]
  AC50: 9.31 µM (active)
Protein RecA
  EC50: 25.4 µM (active)

## COc1cccc(CNc2ccc([N+](=O)[O-])c(NCC(=O)O)n2)c1
[1]
  IC50: 5.38 µM (active)

## O=C(Nc1ccccc1N1CCCCC1)c1ccc(-c2ccc(Cl)cc2)o1
BJ [2]
  EC50: 40.9 µM (inconclusive)
[3]
  EC50: 2.91 µM (active)
BJ [4]
  EC50: 3.11 µM (inconclusive)
BJ [5]
  EC50: 46.9 µM (inconclusive)

## O=C(Nc1ccc(Oc2ccccc2)nc1)C1CCCCN1Cc1ccco1 (centres undefined)
BJ [2]
  EC50: 35.3 µM (active)
[3]
  EC50: 17.3 µM (inconclusive)
BJ [4]
  EC50: 8.7 µM (inconclusive)
BJ [5]
  EC50: 5.04 µM (inconclusive)

## Cc1ccc(CNc2nc(Cl)c(C#N)s2)cc1
[1]
  IC50: 4.33 µM (not active)

## CC(C)(C)c1ccc(C(=O)NC(=S)Nc2ccc(N3CCOCC3)cc2)cc1
BJ [2]
  EC50: 148 µM (inconclusive)
[3]
  EC50: > 150 µM (not active)
BJ [4]
  EC50: 18.2 µM (active)
BJ [5]
  EC50: > 150 µM (not active)

## CCOC(=O)c1sc(SCC(=O)Nc2ccc(N(C)C)cc2)nc1N
[1]
  IC50: 30.7 µM (not active)

## CCCc1cc(-c2nnc(S)n2CC(C)C)cs1
[1]
  IC50: > 50 µM (not active)

## CCOc1ccccc1CNC(=O)c1cn(C)c(=O)c2c1c1ccccc1n2C
Vero
  CC50: > 25 µM (active)

## O=C(NCC(=O)N(c1ccc(F)cc1)C(C(=O)NC1CCCC1)c1cccnc1)c1cccs1 (centres undefined)
[1]
  IC50: < 0.4 µM (not active)

## Cc1noc(C)c1COC(=O)CNC(=O)c1cccc(F)c1
[1]
  IC50: > 50 µM (not active)

## CCC(CC)c1nnc(NC(=O)CC(C)c2ccccc2)s1 (centres undefined)
BJ [2]
  EC50: > 150 µM (not active)
[3]
  EC50: > 150 µM (not active)
BJ [4]
  EC50: > 150 µM (not active)
BJ [5]
  EC50: > 75 µM (inconclusive)

## Cc1cccc(OCCC(=O)Nc2ccc(C)c(S(=O)(=O)N3CCCCC3)c2)c1
[1]
  IC50: 5.33 µM (not active)

## CC1=Nc2cc(C(=O)NCCCOC(C)C)ccc2Sc2ccccc21
BJ [2]
  EC50: 57.5 µM (active)
[3]
  EC50: 18.6 µM (active)
BJ [4]
  EC50: 15.4 µM (active)
BJ [5]
  EC50: > 150 µM (inconclusive)

## Cc1ccc(S(=O)(=O)N2C[C@H]3n4c(=O)ccc(=O)n4C[C@H](OC(=O)NCC4CCCCC4)[C@@]3(O)C2)cc1
Vero
  CC50: > 25 µM (active)

## CN(C)c1n/c(=N/c2cccc(Cl)c2)ss1
Vero
  CC50: 21.6 µM (active)

## C[C@@H]1CN([C@@H](C)CO)C(=O)c2cccc(NC(=O)C3CCCCC3)c2O[C@H]1CN(C)CC1CCCCC1
[7]
  AC50: 3.12 µM (active)
[8]
  AC50: 67.1 µM (active)

## C[C@H](CO)N1C[C@H](C)[C@H](CN(C)S(=O)(=O)c2ccc(F)cc2)Oc2ccc(NS(=O)(=O)c3ccccc3)cc2CC1=O
[7]
  AC50: 16.8 µM (active)
[8]
  AC50: 28.2 µM (active)

## C[C@H](C(=O)N(C)C[C@@H]1OCc2ccccc2-c2ccccc2C(=O)N([C@@H](C)CO)C[C@@H]1C)c1ccccc1
[7]
  AC50: < 0.26 µM (active)
[8]
  AC50: < 0.26 µM (active)

## C[C@H](CO)N1C[C@H](C)[C@H](CN(C)S(=O)(=O)c2cccs2)Oc2ccc(NC(=O)C3CCCCC3)cc2CC1=O
[7]
  AC50: 0.436 µM (active)
[8]
  AC50: 5.23 µM (active)

## CCCCCC(=O)Nc1ccc(N2CCN(CC)CC2)c(Cl)c1
[9]
  EC50: 15.5 µM (active)
H4
  EC50: 5.08 µM (active)
[1]
  IC50: 18.8 µM (not active)
[10]
  EC50: 5.11 µM (active)

## O=C1Cc2c(-c3ccccc3)cc(-c3cccc(Cl)c3)nc2-c2ccccc2N1
Vero
  CC50: 11.4 µM (active)

## Cc1ccc(NCC(=O)N/N=C/c2c[nH]c3ccccc23)cc1
[1]
  IC50: 16.1 µM (not active)

## CC(=O)Nc1ccc(C2=NN(C)/C(=N/Cc3ccccc3)SC2)cc1
[1]
  IC50: 8.93 µM (not active)
[11]
  AC50: 3.9 µM (active)

## CCCCCOc1ccc(/C(C)=N/NC2=NCCN2)cc1
Vero
  CC50: > 25 µM (active)

## Cc1nc(NC(=O)c2ccco2)sc1C(=O)O
BJ [2]
  EC50: 4.14 µM (active)
[3]
  EC50: 10.3 µM (active)
BJ [4]
  EC50: 7.4 µM (active)
BJ [5]
  EC50: > 150 µM (inconclusive)

## CCCCCCCCCCCC1=C(O)C(=O)C=C(O)C1=O [EMBELIN]
[12]
  EC50: 5.02 µM (inconclusive)
Streptococcus
  EC50: 3.32 µM (active)
[13]
  EC50: 1.58 µM (active)
P388
  GI50: 1.78 µM (inactive)
SN12K1
  GI50: 3.74 µM (inactive)
P388/ADR
  GI50: 9.66 µM (inactive)

## COc1ccc2cc1Oc1ccc(cc1)C[C@H]1c3cc(c(OC)cc3CCN1C)Oc1c(O)c(OC)cc3c1[C@H](C2)N(C)CC3 [FANGCHINOLINE]
P388
  GI50: 2 µM (inactive)
INS1
  AC50: 5.84 µM (active)
SN12K1
  GI50: 18.3 µM (inactive)
P388/ADR
  GI50: 2.58 µM (inactive)

## CC(=O)NCCCCCCNC(C)=O [HEXAMETHYLENEBISACETAMIDE]
P388
  GI50: 4260 µM (inactive)
SN12K1
  GI50: 9930 µM (inactive)
P388/ADR
  GI50: 3520 µM (inactive)
